From patent publication US7625718B2, “SVCT2 transporters expressed in blood brain barrier cells” (XenoPort, Inc., priority 2005, dated 2009) come the findings set out here.

SMILES strings stand for the structures.

Series [1] addresses T1, hSVCT2 (Homo sapiens, UniProt Q9UGH3).
T1 construct: expressed in transfected cells; host or cells: HEK-TREx cells, tetracycline-induced
Kind of series: hSVCT2 competition uptake assay in HEK-TREx-hSVCT2 cells. The class given is cell-based. The method, then:
A modified competition uptake assay was developed to determine the ability of a test compound(s) to inhibit the uptake of radiolabeled substrates into […] induced to over-express hSVCT2. The results are stated as affinities (IC50). The competition uptake assay was prepared as follows: Compounds were prepared for assay by diluting a 100 mM stock concentration (in DMSO) to the appropriate working concentration. Typically, seven-point dose response curves were prepared starting at a final assay concentration of 1 mM and carrying out three-fold dilutions. […] Scintillation fluid (200 μl) (Optiphase Supermix (Perkin Elmer) was added to each well, and the plate was covered with a 96-well adhesive plate cover and placed on a shaker for 10 minutes. The plates were counted on a 96-well plate scintillation counter for 60 sec/well. The data were analyzed using a sigmoidal dose response curve-fitting program (Prism, GraphPad, Inc, San Diego, Calif.; equation: one-site competition). FIG. 2 depicts the results of a competition experiment using HEK-TREx-SVCT2 cells. ^3H-Ascorbic acid was used as the substrate and unlabeled ascorbic acid was used as the competitor. […] Non-specific uptake was determined by measuring the uptake into cells not induced to express the transporter (“no tet”). […]

The target of series [2] is T1, hSVCT2. The series can be described thus: hSVCT2 direct uptake assay in HEK-TREx-hSVCT2 cells (LC-MS-MS). Format: cell-based. Conditions: HEK-TREx-hSVCT2 cells induced to express hSVCT2. The method, then: A modified direct uptake assay was developed to determine the ability of test compounds to be transported into HEK-TREx cells induced to over-express hSVCT2. Four concentrations (bracketing the affinity as measured by competition assays) per compound were routinely tested. Non-specific uptake was determined by measuring the uptake into cells not induced to express the transporter (“no tet”).
The direct uptake assays were prepared as follows: Compounds were prepared for assay by diluting a 100 mM stock concentration (in DMSO or water, depending on compound solubility) to the appropriate working concentration. Typically, four concentrations bracketing the IC50 were tested. The highest test concentration for each compound was made in an Eppendorf tube and diluted into HBSS. The samples were robustly vortexed and centrifuged for 10 minutes at 13,200 rpm to spin down any precipitate. The supernatant from these samples (˜150 μl/well) was carefully removed and placed into six wells of row A (cmpd 1: A1-6; cmpd 2: A7-12) or row E (cmpd 3: E1-6; cmpd 4: E7-12) of a 96-well polypropylene “compound” plate. Three additional 2-fold dilutions were made in the subsequent rows (B-D or […]) in HBSS. […]

Another series has as its target T2, PgP (Homo sapiens, UniProt P08183).
T2 construct: expressed in transfected cells; host or cells: MDCK cells, tetracycline-inducible
The series can be described thus: Transwell monolayer efflux assay in TREx-PgP MDCK cells. Format: in vitro ADME. The method, then: Transwell monolayer efflux assays can be performed by transfecting MDCK cells with the tetracycline-inducible TREx-PgP expression vector. The cells optionally can be transfected with a nucleic acid encoding the transporter of interest. The transfected cells are seeded on polycarbonate filter membranes in transwell dishes and grown for 3-5 days, yielding a polarized monolayer with tight junctions between cells.

Where [3] appears, read: 2.5 nM, in the presence of 250 μM verapamil.

T2 sequence (P08183 whole entry): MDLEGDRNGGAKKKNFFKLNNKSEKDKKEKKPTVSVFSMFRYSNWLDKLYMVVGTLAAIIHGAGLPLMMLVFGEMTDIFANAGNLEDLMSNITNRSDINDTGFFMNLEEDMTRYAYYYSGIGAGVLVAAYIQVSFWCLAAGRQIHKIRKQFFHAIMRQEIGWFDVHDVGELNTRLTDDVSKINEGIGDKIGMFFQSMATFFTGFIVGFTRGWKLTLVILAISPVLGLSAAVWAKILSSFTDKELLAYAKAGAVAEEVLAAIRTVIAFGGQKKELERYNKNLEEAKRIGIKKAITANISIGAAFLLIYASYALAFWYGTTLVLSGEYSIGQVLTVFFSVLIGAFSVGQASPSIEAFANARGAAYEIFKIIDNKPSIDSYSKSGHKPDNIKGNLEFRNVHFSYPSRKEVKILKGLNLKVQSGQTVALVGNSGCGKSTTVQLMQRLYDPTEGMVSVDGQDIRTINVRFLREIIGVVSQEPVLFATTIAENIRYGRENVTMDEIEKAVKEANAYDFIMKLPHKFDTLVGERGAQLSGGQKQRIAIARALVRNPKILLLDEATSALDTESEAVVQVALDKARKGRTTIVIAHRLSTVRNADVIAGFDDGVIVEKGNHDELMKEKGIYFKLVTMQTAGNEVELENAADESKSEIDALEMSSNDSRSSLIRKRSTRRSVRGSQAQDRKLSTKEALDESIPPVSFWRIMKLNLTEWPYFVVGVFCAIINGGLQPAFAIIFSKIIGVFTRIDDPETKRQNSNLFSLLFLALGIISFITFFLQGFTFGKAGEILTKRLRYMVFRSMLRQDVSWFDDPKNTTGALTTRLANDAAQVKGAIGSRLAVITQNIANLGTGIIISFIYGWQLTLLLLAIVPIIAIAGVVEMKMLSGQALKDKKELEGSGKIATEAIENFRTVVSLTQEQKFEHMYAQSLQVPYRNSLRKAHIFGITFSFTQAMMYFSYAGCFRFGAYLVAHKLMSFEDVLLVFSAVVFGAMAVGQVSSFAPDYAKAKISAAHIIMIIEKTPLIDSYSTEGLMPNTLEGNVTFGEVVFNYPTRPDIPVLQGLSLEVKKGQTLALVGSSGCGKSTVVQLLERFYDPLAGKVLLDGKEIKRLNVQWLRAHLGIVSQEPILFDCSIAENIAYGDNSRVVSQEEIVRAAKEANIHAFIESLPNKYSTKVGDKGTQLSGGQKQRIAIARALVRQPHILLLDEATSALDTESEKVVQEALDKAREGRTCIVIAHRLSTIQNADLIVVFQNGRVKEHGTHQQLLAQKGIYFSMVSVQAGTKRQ
T1 sequence (Q9UGH3 whole entry): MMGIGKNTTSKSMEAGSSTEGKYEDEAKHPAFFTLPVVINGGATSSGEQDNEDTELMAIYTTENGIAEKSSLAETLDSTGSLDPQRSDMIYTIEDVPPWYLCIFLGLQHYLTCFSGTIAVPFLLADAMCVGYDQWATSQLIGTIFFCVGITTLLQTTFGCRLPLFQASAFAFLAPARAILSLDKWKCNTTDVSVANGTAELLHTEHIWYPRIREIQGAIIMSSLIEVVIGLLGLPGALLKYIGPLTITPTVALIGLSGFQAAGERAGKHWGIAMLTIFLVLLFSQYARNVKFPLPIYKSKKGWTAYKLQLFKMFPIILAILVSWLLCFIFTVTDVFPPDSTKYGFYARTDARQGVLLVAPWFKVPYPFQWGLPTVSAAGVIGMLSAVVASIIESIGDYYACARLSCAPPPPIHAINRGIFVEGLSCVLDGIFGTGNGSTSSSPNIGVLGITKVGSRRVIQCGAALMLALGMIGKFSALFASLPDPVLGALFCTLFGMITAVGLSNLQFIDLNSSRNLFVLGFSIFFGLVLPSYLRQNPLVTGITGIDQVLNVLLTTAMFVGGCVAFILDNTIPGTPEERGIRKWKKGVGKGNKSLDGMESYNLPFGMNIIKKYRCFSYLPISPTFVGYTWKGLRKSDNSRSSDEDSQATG

As to `O=C1O[C@H]([C@@H](O)CO)C(O)=C1O` [Ascorbic Acid], the “uptake of labeled ascorbic acid as concentration of unlabeled ascorbic acid increased” value on hSVCT2 [1] (cells induced to express SVCT2, ^3H-ascorbic acid substrate, FIG. 2) is “decreased”. Also, at hSVCT2 [1] (inhibition of radiolabeled ascorbic acid uptake, HEK-TREx-hSVCT2 cells induced to express hSVCT2), the IC50 worked out at 55 µM. Also, the “Direct Uptake Vmax” value on hSVCT2 [2] is reported as 21 pmol/min/well.
In the case of `CC[C@]1(O)C[C@@H]2CN(CCc3c([nH]c4ccccc34)[C@@](C(=O)OC)(c3cc4c(cc3OC)N(C)[C@H]3[C@@](O)(C(=O)OC)[C@H](OC(C)=O)[C@]5(CC)C=CCN6CC[C@]43[C@@H]65)C2)C1` [^3H-vinblastine], the “efflux transporter substrate status” value at PgP is given as “substrate of PgP”. Moreover, at PgP (setting [3]), the “apical to basolateral transport” value is “strongly increased” and the “basolateral to apical transport” value is “strongly decreased”.

For orientation: IC50 means the point on the concentration scale where inhibition reaches its midpoint. A low value points to inhibition by little substance.
